US8815590B2, “Composition and method for differentiation of human embryonic stem cells” (Stem Cells for Safer Medicines Limited, priority 2009, dated 2014)

Experiments:
[1] = test system: definitive endoderm derived from human ESCs; assay: Differentiation of chemically induced DE to hepatocyte-like cells; type: cell-based; details: DE induction with compound, then HGF/FGF4, then HGF/FGF4/OSM/Dex
Text: (A) Schematic representation of the differentiation protocol. (B) Images of differentiated cells at stage II (d14) and stage III (d25). (C) RT-PCR expression analyses of RNA prepared from cells at the indicated stages of differentiation, using primers specific to the genes indicated. RNA extracted from human liver was used as a positive control. β-ACTIN was used as a housekeeping gene. (D) Expression of FoxA2 and the early hepatic markers HNF4α, AFP and TTR in cells at stage II and stage III of differentiation were analyzed by immunofluorescence. Scale bar represents 50 μm. (E) Media (1 μl) from stage III (d25) cells, conditioned for 48 hours, and from a media alone (MA) control were analysed by immunoblotting with an antibody to AFP. Purified AFP and media conditioned from HUH7 cells were run as controls. (F) ELISA assay for human Albumin from stage III (d25) media. (G) Differentiation of BIO-derived DE cells to hepatocyte-like cells. SHEF3 ESCs were treated with 2 μM BIO for 5 days to induce differentiation to the DE. ESCs were then cultured under hepatic induction and maturation conditions as outlined in the Experimental Procedures and FIG. 5A. Expression of FOXA2 and the early hepatic markers HNF4α, AFP and TTR in ESCs at stage II and stage III of differentiation were analyzed by immunofluorescence. Scale bar represents 50 μm. […]

ESCs [SHEF1] [2] = assay: Flow cytometry of the DE marker CXCR4; type: cell-based, human; details: 2 μM 1M, 100 ng/ml Activin A, alone or in combination, 5 days
Method: (§1) (A) RNA was extracted from ESCs [SHEF1] cultured for 7 days in the presence of 2 μM 1M for the days indicated. RT-PCR analyses were performed using primers selective for the genes indicated. (B) ESCs [SHEF1] were treated with 2 μM 1M alone or in combination with 10 μM SB43125 (S) for the days indicated and RT-PCR performed on the extracted RNA. (C) ESCs [SHEF3] were treated with 1M alone or in combination with 100 ng/ml Activin A (A) for the days indicated and RT-PCR performed. (D). ESCs [SHEF1] were treated with 2 μM 1M, or 100 ng/ml ActivinA (A) alone or in combination with 1M for 5 days. Expression of the endoderm markers FoxA2 and HNF4α was analysed by immunofluorescence. The number of percent positive cells averaged from 3 fields of view +/−SD are indicated. Scale bar represents 50 μm. (E) ESCs [SHEF1] were treated with 2 μM 1M, or 100 ng/ml ActivinA (A) alone or in combination with 1M for 5 days. Expression of the DE marker CXCR4 was alaysed by flow cytometry.
ESCs were trypsinised (0.05% Trypsin-EDTA) for 10 minutes at 37° C. and resuspended in PBS containing 2% (v/v) FBS (FBS/PBS). […] Flow cytometry was performed using a FACSCanto cytometer (Becton Dickenson) and the data were analysed with FACSDiva software. […]

ESCs [SHEF1] [3] = assay: Immunofluorescence of endoderm markers FoxA2 and HNF4α, percent positive cells; type: cell-based, human; details: 5 days
Method: as §1
ESCs were cultured on Matrigel®-coated lummox (Greiner Bio One) trays and fixed with 4% paraformaldehyde (PFA) for 20 minutes at room temperature. Cells were permeabilised in PBST (with 0.1% Triton X-100) and blocked in 10% blocking reagent (Roche) before incubating with primary antibodies in 2% blocking reagent overnight at 4° C. After washing in PBS, cells were incubated with FITC-conjugated secondary antibodies (Vector Labs) for 3 hours at room temperature. After further washing, the cells were stained with 4,6-diamidino-2-phenylindole (DAPI) (SIGMA), washed again and mounted in MOWIOL. The following antibodies and dilutions were used: goat-anti-FoxA2 (1:100, R&D. Systems), mouse anti-Sox17 (1:50, R&D Systems), rabbit anti-HNF4α (1:100, Santa Cruz), rabbit anti-AFP (1:100, DAKO), rabbit anti-TTR (1:100, DAKO). Images were captured on a Zeiss 510 Meta confocal microscope using a 40× objective.

ESCs [SHEF1] [4] = assay: RT-PCR of Activin/Nodal pathway and differentiation marker genes; type: cell-based, human; details: 2 μM, after 1 day, maintained up to 3 days, basal by day 7
Method: as §1
Total RNA was isolated and purified using TRIzol Reagent (Invitrogen), following the manufacturer's instructions. All RNA samples were treated with DNase I (Ambion) before cDNA synthesis to eliminate any contaminating genomic DNA. RNA (1 μg) was reverse transcribed into cDNA using Oligo(dT)15 (Promega) and SuperScript II (Invitrogen). Gene-specific PCR was carried out using primers and annealing temperatures outlined in Table 2.

For `O=C1NC(=O)C2=C1c1cn(c3ccccc13)CCOCCOCCOCCOCCn1cc2c2ccccc21` [1M], the “Potential of compound-derived DE to form hepatocyte-like cells” value [1] was “has the potential to differentiate into cells with hepatocyte characteristics”, the “CXCR4 expression by flow cytometry” value (ESCs [SHEF1] [2]) was 53.0% and the “FOXA2 expressing cells in the entire population” value (ESCs [SHEF1] [3]; 2 μM 1M or 100 ng/ml Activin A) was 35-40%. For the same molecule, the HNF4α-expressing cells (ESCs [SHEF1] [3]; 2 μM 1M or 100 ng/ml Activin A) was 20%, the “FoxA2 positive cells in clusters of cells” value (ESCs [SHEF1] [3]; 2 μM, within clusters) was 73% and the NODAL gene expression (ESCs [SHEF1] [4]) was “increase in NODAL gene expression”.
